According to publication PMC11588247, “Antimicrobial and antioxidant activities of peptide derived from turmeric plant (Curcuma longa L)” (PLOS ONE, 2024):
Ends that are not written are not given here.

Legend:
[1] = ABTS radical scavenging assay; conditions: 10 μL sample + 190 μL ABTS solution, 5 min dark, absorbance 750 nm, ascorbic acid standard; hydrolysate at 100 μg/mL
Experimental: Radical scavenging antioxidant activity was determined according to the ABTS radical scavenging activity following the method described by Re et al. with slight modifications. Briefly, the solution of ABTS radical was prepared from the reaction between 7 mM ABTS (2,2-azino-bis (3-ethylbenzothiazoline-6-sulphonic acid) diammonium salt) and 2.45 mM ammonium persulphate. The resulting ABTS solution was diluted with distilled water to achieve an optical density of 0.7 at 750 nm. Then, a sample or standard of 10 μL was mixed with 190 μL of ABTS solution and incubated for 5 minutes in the dark. The absorbance was measured at 750 nm by a microplate reader (Synergy H1 Hybrid Multi-Mode Reader, Biotek, Winusky, VT, USA). Ascorbic acid was used as the standard.

[2] = DPPH radical scavenging assay; conditions: 10 μL sample + 190 μL 0.1 mM DPPH, 30 min dark, room temperature, absorbance 517 nm, ascorbic acid standard; hydrolysate at 100 μg/mL
Experimental: The DPPH radical scavenging activity of the sample was evaluated following the protocol by Muangrod et al. with slight modifications. Briefly, 190 μL of 0.1 mM DPPH was mixed with 10 μL of the sample or standard ascorbic acid in each well and incubated at room temperature in the dark for 30 minutes. The absorbance of the mixture was measured at 517 nm using a microplate reader (Synergy H1 Hybrid Multi-Mode Reader, Biotek, Winusky, VT, USA). The percentage inhibition of DPPH radical scavenging activity was calculated using the following equation: %DPPHinhibition=[(Acontrol−Asample)/Acontrol]×100 (2) where A control means the absorbance of the control that contained all reagents except the test samples, and A sample means the absorbance of the mixture (sample and 0.1 mM DPPH). Ascorbic acid was used as the standard. Results were expressed as μg ascorbic acid equivalent (μg AAE g^−1).

[3] = FRAP (ferric ion-reducing antioxidant power) assay; conditions: 10 μL sample + 190 μL FRAP reagent (acetate pH 3.6, TPTZ, FeCl3), 30 min dark, absorbance 593 nm, ascorbic acid standard; hydrolysate at 100 μg/mL
Experimental: The ferric ion-reducing antioxidant power assay was analyzed according to the method by Rumpf et al. with minor modifications. Briefly, the FRAP reagent was prepared from 300 mM sodium acetate (pH 3.6) and 10 mM TPTZ (2,4,6-tris (2-pyridyl)-s-triazine) in 40 mM HCl and 20 mM ferric chloride at the ratio of 10:1:1, respectively. Then, a 10 μL aliquot of the sample or standard was mixed with 190 μL of the FRAP reagent before incubating in the dark for 30 minutes. The absorbance was measured at 593 nm using a microplate reader (Synergy H1 Hybrid Multi-Mode Reader, Biotek, Winusky, VT, USA). Ascorbic acid (Sigma-Aldrich, Singapore) was used as the standard. Results were expressed as micrograms of ascorbic acid equivalent per gram (μg AAE g^−1).

[4] = test system: Acinetobacter baumannii (ATCC 19606); assay: microbe, parasite or virus in culture; format: cell-based; conditions: sample 100 μg/mL, 6 h at 37°C, MTT OD570 vs inoculated broth control
Source text: (§1) Pathogenic microorganism composes of Escherichia coli (ATCC 25922), Staphylococcus aureus (ATCC 25923), Staphylococcus epidermidis (ATCC 12228), Bacillus subtilis (ATCC 6633), Bacillus cereus (ATCC 11778), Pseudomonas aeruginosa (ATCC 27853), Vibrio parahaemolyticus (ATCC 17802), Klebsiella pneumoniae (ATCC 27736), Acinetobacter baumannii (ATCC 19606), Enterobacter cloacae (ATCC 13047), Salmonella enterica (ATCC 13311), and Salmonella Typhi (ATCC 22842) were used in the experiments.
(§2) Bacteria were initially cultured on Tryptic Soy Agar (TSA) plates at 37°C for 12–16 hours. A single colony was transferred to Tryptic Soy Broth (TSB) and incubated at 37°C with gently agitation at 100 rpm, for an additional 12–16 hours. The bacterial concentration was adjusted to an optical density at 600 nm (OD600) of 0.05, corresponding to 4 x 10^7 CFU/mL, before being added to a 96-well plate (50 μL per well). Subsequently, 50 μL of protein hydrolysate or peptide was inoculated into each well at a final concentration of 100 μg/mL, and the mixture was incubated at 37°C with continuous shaking at 100 rpm for 6 hours. Wells with inoculated broth alone served as a negative control, while wells containing Ampicillin (100 μg/mL) served as a positive control. Following incubation, 25 μL of a 100 μg/mL MTT (3-(4,5-dimethylthiazol-2-yl)-2,5-diphenyltetrazolium bromide) solution was added to each well, thoroughly mixed, and incubated at room temperature for 4 hours. The optical density at 570 nm (OD570nm) was subsequently measured using a microplate reader (Synergy H1 Hybrid Multi-Mode Reader, Biotek, Winusky, VT, USA). The percentage of inhibition was calculated using the provided equation: [(OD570control–OD570test)/OD570control]×100 (1)

[5] = test system: Salmonella enterica (ATCC 13311); assay: microbe, parasite or virus in culture; format: cell-based; conditions: sample 100 μg/mL, 6 h at 37°C, MTT OD570 vs inoculated broth control
Source text: as §1, §2

[6] = test system: Staphylococcus aureus (ATCC 25923); assay: microbe, parasite or virus in culture; format: cell-based; conditions: sample 100 μg/mL, 6 h at 37°C, MTT OD570 vs inoculated broth control
Source text: as §1, §2

[7] = test system: Staphylococcus epidermidis (ATCC 12228); assay: microbe, parasite or virus in culture; format: cell-based; conditions: sample 100 μg/mL, 6 h at 37°C, MTT OD570 vs inoculated broth control
Source text: as §1, §2

[8] = test system: Bacillus cereus (ATCC 11778); assay: Antimicrobial activity assay (broth culture, MTT read-out); format: cell-based; conditions: ATCC11778, sample 100 μg/mL, 6 h at 37°C, MTT OD570 vs inoculated broth control, read-out: Inhibitory Percentage (Means±SD), Bacillus cereus ATCC 11778
Source text: as §1, §2

[9] = test system: Bacillus subtilis (ATCC 6633); assay: as above; format: cell-based; conditions: ATCC6633, sample 100 μg/mL, 6 h at 37°C, MTT OD570 vs inoculated broth control, read-out: Inhibitory Percentage (Means±SD), Bacillus subtilis ATCC 6633
Source text: as §1, §2

[10] = test system: Enterobacter cloacae (ATCC 13047); assay: as above; format: cell-based; conditions: ATCC13047, sample 100 μg/mL, 6 h at 37°C, MTT OD570 vs inoculated broth control, read-out: Inhibitory Percentage (Means±SD), Enterobacter cloacae ATCC 13047
Source text: as §1, §2

[11] = test system: Escherichia coli (ATCC 25922); assay: as above; format: cell-based; conditions: ATCC25922, sample 100 μg/mL, 6 h at 37°C, MTT OD570 vs inoculated broth control, read-out: Inhibitory Percentage (Means±SD), Escherichia coli ATCC 25922
Source text: as §1, §2

[12] = test system: Klebsiella pneumoniae (ATCC 27736); assay: as above; format: cell-based; conditions: ATCC27736, sample 100 μg/mL, 6 h at 37°C, MTT OD570 vs inoculated broth control, read-out: Inhibitory Percentage (Means±SD), Klebsiella pneumoniae ATCC 27736
Source text: as §1, §2

[13] = test system: Pseudomonas aeruginosa (ATCC 27853); assay: as above; format: cell-based; conditions: ATCC27853, sample 100 μg/mL, 6 h at 37°C, MTT OD570 vs inoculated broth control, read-out: Inhibitory Percentage (Means±SD), Pseudomonas aeruginosa ATCC 27853
Source text: as §1, §2

[14] = test system: Salmonella Typhi (ATCC 22842); assay: as above; format: cell-based; conditions: Salmonella enterica, 6 h, read-out: Inhibitory Percentage (Means±SD), Salmonella Typhi ATCC 22842
Source text: as §1, §2

[15] = test system: Vibrio parahaemolyticus (ATCC 17802); assay: as above; format: cell-based; conditions: ATCC17802, sample 100 μg/mL, 6 h at 37°C, MTT OD570 vs inoculated broth control, read-out: Inhibitory Percentage (Means±SD), Vibrio parahaemolyticus ATCC 17802
Source text: as §1, §2

Compound | ABTS radical-scavenging activity (antioxidant activity ± SD) [1] [μg AAE g^−1] | DPPH radical scavenging activity (antioxidant activity ± SD) [2] [μg AAE g^−1] | FRAP (antioxidant activity ± SD) [3] [μg AAE g^−1] | other results
VLKKLLPLL [Cur-6] | 0.09±0.01 | 0.67±0.06 | 1.05±0.00 | –
VKLKIPLLIL [Cur-3] | 0.08±0.00 | 0.67±0.00 | 1.04±0.00 | –
KLHLLILI [Cur-1] | 0.22±0.00 | 0.63±0.04 | 1.05±0.01 | Inhibitory Percentage (Means±SD), Acinetobacter baumannii ATCC 19606 ([4]; listed as Cur-25): inhibited growth; Inhibitory Percentage (Means±SD), Salmonella enterica ATCC 13311 ([5]; listed as Cur-25): inhibited growth; Inhibitory Percentage (Means±SD), Staphylococcus aureus ATCC 25923 ([6]; listed as Cur-25): inhibited growth; Inhibitory Percentage (Means±SD), Staphylococcus epidermidis ATCC 12228 ([7]; listed as Cur-25): inhibited growth
ARLLLLKP [Cur-8] | 0.13±0.00 | 0.58±0.00 | 1.05±0.01 | –
PKVKILIL [Cur-4] | 0.15±0.00 | 0.77±0.01 | 1.08±0.09 | –
QIILLLLKP [Cur-9] | 0.07±0.00 | 0.70±0.00 | 1.04±0.02 | –
LKKTLLLVNKADLLP [Cur-5] | 0.12±0.00 | 0.62±0.01 | 1.04±0.00 | –
VHVLLLIL [Cur-10] | 0.30±0.01 | 0.75±0.04 | 1.04±0.00 | –
LKKPVILL [Cur-11] | 0.17±0.01 | 0.68±0.02 | 1.05±0.01 | –
HAFRDAVTPLE [Cur-12] | 0.02±0.00 | 0.60±0.06 | 1.04±0.01 | –
PLLLKLIV [Cur-2] | 0.13±0.00 | 0.75±0.03 | 1.05±0.01 | Inhibitory Percentage (Means±SD), Acinetobacter baumannii ATCC 19606 ([4]; listed as Cur-14): inhibited growth; Inhibitory Percentage (Means±SD), Salmonella enterica ATCC 13311 ([5]; listed as Cur-14): inhibited growth; Inhibitory Percentage (Means±SD), Staphylococcus aureus ATCC 25923 ([6]; listed as Cur-14): inhibited growth; Inhibitory Percentage (Means±SD), Staphylococcus epidermidis ATCC 12228 ([7]; listed as Cur-14): inhibited growth
CC1(C)S[C@@H]2[C@H](NC(=O)[C@H](N)c3ccccc3)C(=O)N2[C@H]1C(=O)O [Ampicillin] | – | – | – | inhibition at 100 µg/mL ([4]; Acinetobacter baumannii, ATCC19606, read-out: Inhibitory Percentage (Means±SD), Acinetobacter baumannii ATCC 19606): 42 ± 4.67%; inhibition at 100 µg/mL ([5]; Salmonella enterica, ATCC13311, read-out: Inhibitory Percentage (Means±SD), Salmonella enterica ATCC 13311): 84.6 ± 4.34%; inhibition at 100 µg/mL ([6]; Staphylococcus aureus, ATCC25923, read-out: Inhibitory Percentage (Means±SD), Staphylococcus aureus ATCC 25923): -2.72 ± 0.02%; inhibition at 100 µg/mL ([7]; Staphylococcus epidermidis, ATCC12228, read-out: Inhibitory Percentage (Means±SD), Staphylococcus epidermidis ATCC 12228): 7.42 ± 0.23%; inhibition at 100 µg/mL [8]: 35.9 ± 1.46%; inhibition at 100 µg/mL [9]: 96.5 ± 4.03%; inhibition at 100 µg/mL [10]: 15.6 ± 0.89%; inhibition at 100 µg/mL [11]: 82.1 ± 2.62%; inhibition at 100 µg/mL [12]: -19.1 ± 1.32%; inhibition at 100 µg/mL [13]: 16.3 ± 0.87%; inhibition at 100 µg/mL [14]: 8.6 ± 0.22%; inhibition at 100 µg/mL [15]: -45.8 ± 1.54%
PLKLLLPL [Cur-7] | 0.15±0.00 | 0.74±0.02 | 1.04±0.00 | –
